How the values were obtained:
benzodiazepine receptors = test: radio receptor assay using receptors extracted from brains of rats and 3H-diazepam; format: binding; settings: receptors extracted from rat brains
acute toxicity = settings: mouse, in vivo; oral; DS infant male mice, 20 to 23 g; observed 72 hours; Bliss method
Protocol: Test compounds were orally administered to DS infant male mice with four toxic doses. For each dose 10 mice were used, their body weights ranging from 20 to 23 grams. […] Mortality was calculated by the Bliss method [Bliss: Ann. Appln. Biol., 23, 134-307 (1935); Quant. J. Pharmacol., 11, 192 (1938)].

tonic convulsion = test: antipentylenetetrazole test indicating anticonvulsive activities; format: in vivo; settings: Mus musculus; oral, 60 min before s.c. pentylenetetrazole 125 mg/kg; mortality observed for 2 h; DS male mice
Protocol: In determination of the antipentylenetetrazole activity, four test lots consisting of 4×10 DS male mice were employed. Within 15 minutes after single subcutaneous injection of 125 mg/kg (body weight of mouse) of pentylenetetrazole (a kind of convulsion reagent given as an aqueous solution), the mice were attacked by tonic convulsion which killed them. Test compound was orally administered 60 minutes before said s.c. injection. Observation was made for two hours postinjection of pentylenetetrazole. Anticonvulsant activity was determined in mortality percentage between 100% (all the mice dead) and 0% (all the mice alive). Test results are shown by preventive ED50 value (Effective Doses in mg/kg, a theoretical level of 50% alive and 50% dead)[Goodman, et al.: J. Pharmacol., 108, 168 (1953)].

| SMILES | Ki (benzodiazepine receptors) [nM] | LD50 at 72 h (acute toxicity) [mg/kg] | ED50 (tonic convulsion) [mg/kg] |
| --- | --- | --- | --- |
| OCc1nnc2n1-c1ccc(Cl)cc1C(c1ccccc1Cl)OC2 (stereo not drawn) [1-Hydroxymethyl-6-(2-chlorophenyl)-8-chloro-4H,6H-(1,2,4)triazolo[4,3-a][4,1]benzoxazepine] | 3.45 | – | – |
| Clc1ccc2c(c1)C(c1ccccc1Cl)OCc1nncn1-2 (stereo not drawn) [Compound 1] | – | > 1000 | 1.25 |
| Clc1ccc2c(c1)C(c1ccccc1Cl)OCc1nnc(N3CCOCC3)n1-2 (stereo not drawn) [Compound 2] | – | > 1000 | 4.26 |
| COCc1nnc2n1-c1ccc(Cl)cc1C(c1ccccc1Cl)OC2 (stereo not drawn) [Compound 3] | – | > 1000 | 2.38 |
| CC(=O)OCc1nnc2n1-c1ccc(Cl)cc1C(c1ccccc1Cl)OC2 (stereo not drawn) [Compound 4] | – | > 1000 | 1.2 |
| Clc1ccc2c(c1)C(c1ccccc1Cl)OCc1nnc(CN3CCOCC3)n1-2 (stereo not drawn) [Compound 5] | – | > 1000 | 3.81 |
| OCc1nnc2n1-c1ccc(Cl)cc1C(c1ccccc1Cl)OC2 (stereo not drawn) [Compound 6] | – | > 1000 | 3.25 |
| CCOCc1nnc2n1-c1ccc(Cl)cc1C(c1ccccc1Cl)OC2 (stereo not drawn) [Compound 7] | – | > 1000 | 2.13 |
| CN(C)Cc1nnc2n1-c1ccc(Cl)cc1C(c1ccccc1Cl)OC2 (stereo not drawn) [Compound 8] | – | > 1000 | 1.02 |
| Clc1ccc2c(c1)C(c1ccccc1Cl)OCc1nnc(CN3CCCC3)n1-2 (stereo not drawn) [Compound 9] | – | > 1000 | 4.63 |
| CC(C)OCc1nnc2n1-c1ccc(Cl)cc1C(c1ccccc1Cl)OC2 (stereo not drawn) [Compound 10] | – | > 1000 | 2.42 |
| CCCOCc1nnc2n1-c1ccc(Cl)cc1C(c1ccccc1Cl)OC2 (stereo not drawn) [Compound 11] | – | > 1000 | 3.09 |
| Cn1nc2n(c1=O)-c1ccc(Cl)cc1C(c1ccccc1Cl)OC2 (stereo not drawn) [Compound 12] | – | > 1000 | 3.46 |
| Cc1nnc2n1-c1ccc(Cl)cc1C(c1ccccc1Cl)OC2C (stereo not drawn) [Compound 13] | – | > 1000 | 1.19 |
| CC(=O)OCCc1nnc2n1-c1ccc(Cl)cc1C(c1ccccc1Cl)OC2C (stereo not drawn) [Compound 14] | – | > 1000 | 1.67 |
| Cc1nnc2n1-c1ccc(Cl)cc1C(c1ccccc1C(F)(F)F)OC2 (stereo not drawn) [Compound 15] | – | > 1000 | 1.41 |
| CN1C(=O)CN=C(c2ccccc2)c2cc(Cl)ccc21 [Diazepam, reference compound] | – | – | 1.2 |
| CN1CCN=C(c2ccccc2)c2cc(Cl)ccc21 [Medazepam, reference compound] | – | > 1000 | – |

Reference: US4476133A, “Triazolo-4,1-benzoxazepines having CNS activity” (Shionogi & Co., Ltd., priority 1980, dated 1984)
